For assay [1], the system named is SSTR2. Nature of the assay: Spectral flow cytometry, SSTR2 positive cells, iPSCUSP48MV organoids. Format: cell-based, human. As to conditions: 48 h, FIGS. 8A, E. The protocol: Sonic Hedgehog (SHH) was withdrawn from the organoid growth media 16 hours prior to treatment. The experimental treatment groups included: vehicle (Veh), mifepristone (500 nM, Selleckchem S2606), GANT61 (5 μM, Stemcell Technologies 73692), ketoconazole (Keto, 10 μM, Selleckchem S1353), pasireotide (Pas, 100 nM, Target Mol TP2207-SB001), octreotide (Oct, 100 nM, Selleckchem P1017), mifepristone plus GANT61, mifepristone plus Keto, mifepristone plus Pas, relacorilant (500 nM, Corcept Therapeutics CORT125134), relacorilant plus Pas, relacorilant plus Oct, or dexamethasone (Dexa, 100 nM, SIGMA S4902). In the combination treatments, cultures were pretreated with the GANT61, Keto, Pas or Oct for 2 hours prior to treatment with mifepristone or Rela. PitNET tissue derived organoids hPITO36, hPITO37, hPITO38, hPITO39, and hPITO40 were treated with the following experimental conditions: Vehicle (1), pasireotide (2), relacorilant (3), relacorilant & pasireotide (4), mifepristone (5), mifepristone & pasireotide (6). The IC50 values used for each hPITO line for each drug were determined based on dose responses (FIG. 12). All organoid cultures were treated for 48 hours prior to analysis.
The multicolor flow cytometry antibody panel was designed using the Cytek® Full Spectrum Viewer online tool to calculate the similarity index. Organoids were harvested in cold Serum-Free Defined Medium media and incubated with Zombie (BioLegend 423107, 1:100) for 15 minutes in the dark at room temperature, followed by incubation with fluorochrome-conjugated/unconjugated primary surface or cytoplasmic antibodies (Table 6) at 4° C. for 30 minutes. Cells were then washed with Cell Staining Buffer (BioLegend 420-201) and incubated at 4° C. for 30 minutes with secondary antibodies (Table 6). Cells were fixed using Cytofix/Cytoperm™ Fixation/Permeabilization Solution (BD Biosciences 554714) and washed with Fixation/Permeabilization wash buffer according to the recommended protocol. […] Data was acquired using the Cytek® Aurora, analyzed using Cytobank Premium software (Beckman Coulter).
In general terms: A flow cytometer gives signals particle by particle.

For assay [2], the system named is SSTR2. Nature of the assay: Spectral flow cytometry, SSTR2 positive cells, hPITOs. Format: cell-based, human. As to conditions: hPITO, 48 h, FIGS. 9E, F. An excerpt: 1.3 Generation and Culture of Human PitNET Tissue Organoids (hPITOs)
Patients undergoing planned transsphenoidal surgery for PitNETs were identified in the outpatient neuroendocrinology and neurosurgery clinics and collected by the St. Joseph's Hospital and Barrow Neurological Institute Biobank under the collection protocol PHXA-05TS038, and outcomes data protocol PHXA-0004-72-29 with approval of the Institutional Review Board (IRB) and patient consent. De-identified samples were shipped in collection and transport media (Table 3) to the Zavros laboratory (University of Arizona) for processing within 24 hours of collection. Resected PitNET tissues were washed with Dulbeccos Phosphate Buffered Saline (DPBS) supplemented with 1× Penicillin/Streptomycin, 1× Kanamycin and 1× Amphotericin/Gentamycin, minced into smaller pieces, and incubated with digestion buffer (Dulbecco's Modified Eagle Medium/Nutrient Mixture F-12 (DMEM/F12) supplemented with 0.4% Collagenase 2, 0.1% Hyaluronic Acid, 0.03% Trypsin). The tissue was incubated with Accutase (Thermo Fisher Scientific) for a further 5 minutes, and the cells were pelleted and washed with DPBS supplemented with antibiotics. Dissociated cells were then seeded as Matrigel™ domes in culture dishes and overlaid with growth media (Table 4). Media was replaced every 3 days and organoids were harvested for downstream experiments or passaged after 15 days of culture (FIG. 1B).
Sonic Hedgehog (SHH) was withdrawn from the organoid growth media 16 hours prior to treatment. […] The IC50 values used for each hPITO line for each drug were determined based on dose responses (FIG. 12). […]

The structures appear in SMILES notation.

These results are taken from patent US20260325504A1, “Genetically Engineered Human Pituitary Corticotroph Tumor Organoids Exhibit Divergent Responses to Selective Glucocorticoid Receptor Modulators” (Corcept Therapeutics Incorporated, priority 2022, published 2026).

As for `CC#C[C@]1(O)CC[C@H]2[C@@H]3CCC4=CC(=O)CCC4=C3[C@@H](c3ccc(N(C)C)cc3)C[C@@]21C` [mifepristone, 11β-(4-dimethylaminophenyl)-17ß-hydroxy-17α-(1-propynyl)-estra-4,9-dien-3-one], in the assay with SSTR2 [1], the “magnitude of SSTR2 induction, mifepristone vs relacorilant” value is “significantly greater than that of relacorilant” and the “percentage of SSTR2 positive cells” value is “significant increase”. For the same compound, in the assay on SSTR2 [2], the “magnitude of SSTR2 induction, mifepristone vs relacorilant” value was “significantly greater than that of relacorilant” and the “percentage of SSTR2 positive cells” value is reported as “significant increase”.
On to `Cn1cc(S(=O)(=O)N2CCC3=Cc4c(cnn4-c4ccc(F)cc4)C[C@]3(C(=O)c3cc(C(F)(F)F)ccn3)C2)cn1` [relacorilant, (R)-(1-(4-fluorophenyl)-6-((1-methyl-1H-pyrazol-4-yl)sulfonyl)-4,4a,5,6,7,8-hexahydro-1H-pyrazolo[3,4-g]isoquinolin-4a-yl) (4-(trifluoromethyl)pyridin-2-yl) methanone], for which the “percentage of SSTR2 positive cells” value in the assay with SSTR2 [1] and in the assay with SSTR2 [2] was “significant increase” each time.
